Measured values as given in patent US7074768B2, “Modified protein kinase A-specific oligonucleotides and methods of their use” (Idera Pharmaceuticals, Inc., priority 1995, dated 2006).

How the values were obtained:
AR = assay: Histochemical analysis of GEO tumors: AR; format: in vivo; details: after two cycles
Source text: Tumor specimens from the different groups of mice were examined by histochemical analysis at different time points to evaluate the expression of a variety of biological parameters.
TGFα and AR are growth factors which bind to EGFR and control human colon cancer growth through autocrine and paracrine mechanisms (F. Ciardiello and G. Tortora, Clin. Cancer Res. 4:821–828 (1998); D. S. Salomon, Crit. Rev. Oncol. Hematol. 19:183–232 (1995)).

[1] = test system: 1A9PTX22 human ovarian cancer cells; assay: Soft agar growth of 1A9PTX22 cells; format: cell-based
Procedure: Cell lines. The 1A9PTX22 cell line, a paclitaxel (PTX)-resistant clone of the human ovarian carcinoma cell line 1A9, was isolated by exposing 1A9 cells to 5 ng/ml PTX in the presence of 5 μg/ml verapamil, a P glicoprotein antagonist. 1A9PTX22 cells were kindly provided by Dr. Giannakakou, NCI Bethesda, Md., USA. Cells were maintained in RPMI medium supplemented with 10% heat-inactivated FBS, 20 mM HEPES, pH 7.4 penicillin (100 UI/ml), streptomycin (100 μg/ml) and 4 mM glutamine (ICN, Irvine, UK) 15 ng/ml PIX and 5 μg/ml verapamil in a humified atmosphere of 95% air and 5% CO2 at 37° C. 7 days before experiments were performed, PTX and verapamil were removed from culture medium.
Soft agar growth. Cells (10^4 cells/well) were seeded in 0.5 ml of 0.3% Difco Noble agar (Difco, Detroit, Mich.) supplemented with complete culture medium. This suspension was layered over 0.5 ml of 0.8% agar-medium base layer in 24 multiwell cluster dishes (Becton Dickinson) and treated with various concentrations of HYB 165 or HYB508 every […] for three times. After 12 days the cells were stained with nitroblue tetrazolium (Sigma, St. Louis, Mo.) and colonies larger than 0.05 mm were counted.

[2] = test system: GEO colon cancer xenografts; assay: GEO colon cancer xenografts in nude mice (tumor growth, survival); format: in vivo; details: for inhibition of tumor growth: 10 mg/kg/dose
Procedure: We investigated the antitumor activity of HYB 165 (AS RIα) in nude mice bearing GEO colon cancer xenografts, using either the intraperitoneal (i.p.) or the oral route of administration. When established GEO tumors of approximately […] were detectable, groups of 10 mice were treated i.p. with either HYB 165 or a control modified backbone oligonucleotide with a scrambled sequence, at 5 or 10 mg/kg/dose, daily on days 7 to 11 and 14 to 18. […] The control oligonucleotide produced no inhibition at 10 mg/kg/dose.
Following oral administration, modified backbone oligonucleotides (MBOs) are absorbed in the upper and lower part of the GI tract and distributed to major organs (S. Agrawal and R. Zhang, In: Antisense Research and Application, S. T. Crooke, ed.), Handbook of Experimental Pharmacology, Springer, Berlin, p. 525–543 (1998). Therefore, HYB 165 and the control oligonucleotide were administered to GEO tumor-bearing mice as described above, except that HYB 165 and the control oligonucleotide were administered orally.
On day 7 after tumor cell injection, one group of 10 mice was treated with taxol (20 mg/kg/dose, i.p.), and the treatment was repeated every 2 weeks (on day 21 and day 35) for a total of three cycles. Two other groups of mice were treated with either HYB 165 (AS RIα) or a control MBO with a scrambled sequence (10 mg/kg/dose, p.o.), daily for five days (days 8–12). Treatment was repeated every 2 weeks (days 22–26 and days 36–40) for a total of three cycles. Two more groups of mice were treated with taxol and either HYB 165 or the control MBO, administering the taxol (20 mg/kg/dose, i.p.) on day 7, followed by oral administration of either HYB 165 or the control MBO daily for five days (days 8–12). The sequential treatment was repeated with the same schedule every 2 weeks for a total of three cycles.

## HYB 165: Hybrid 18-mer mixed backbone antisense to PKA RIα, GCGUGCCTCCTCACUGGC (SEQ ID NO:4), 2-O-methyl ribonucleotides at 5′ and 3′ ends (sugars by position and backbone not given here; 2'-O-methyl ribonucleotides at both ends, mixed backbone)
AR; in combination with taxol
  expression of AR: further enhanced
AR; single agent
  expression of AR: inhibited the expression of TGF α and AR
[1]; 0.1 μM
  inhibition of cell growth: approximately 5%
[1]; 0.5 μM
  inhibition of cell growth: about 50%
[1]; 1 μM
  inhibition of cell growth: about 82%
[1]; 2.5 μM
  inhibition of cell growth: over 95%
[2]; 10 mg/kg/dose p.o., at the completion of the three cycles of treatment
  inhibition of tumor size: over 50%
[2]; MBO 10 mg/kg/dose p.o. in combination with taxol 20 mg/kg/dose i.p., three cycles
  tumor growth: marked and sustained inhibition of tumor growth
[2]; MBO p.o. in combination with taxol i.p., three cycles
  survival: prolonged mouse life span
[2]; combined treatment with taxol and HYB 165
  tolerability (weight loss, signs of acute or delayed toxicity): well tolerated
[2]; i.p., daily on days 7 to 11 and 14 to 18, FIG. 16A
  inhibition of tumor growth: up to 40%
[2]; oral, two cycles, vs untreated mice, FIG. 16B
  inhibition of tumor growth: about 60%
[2]; single agent, three cycles (taxol 20 mg/kg/dose i.p.; MBO 10 mg/kg/dose p.o.), FIG. 17A
  tumor growth: inhibited tumor growth
[2]; single agent, three cycles, FIG. 17B
  survival time: increased survival time as compared to the control group
[2]; taxol 20 mg/kg/dose i.p. and HYB 165 10 mg/kg/dose p.o., three cycles
  time of very slow tumor growth following the end of treatment: approximately 60 days
[2]; taxol and HYB 165 in combination
  mice still alive after 15 weeks: about 50%
